Experiment in all cases: DTP human tumour cell line panel, 48 h
Test [1] deals with HOP-18 NSCLC.
Test [2] deals with 786-0 renal.
Test [3] relates to DMS 273 small cell lung.
Test [4] relates to SNB-19 CNS.
Test [5] relates to XF 498 CNS.
In test [6] the test system is M19-MEL melanoma.
The test system of test [7] is DLD-1 colon.
For test [8], the system named is SNB-78 CNS.
The subject of test [9] is DMS 114 small cell lung.
For test [10], the system named is LXFL 529 NSCLC.
The subject of test [11] is KM20L2 colon.
Test [12] relates to RXF-631 renal.

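Compound exposure: 48 hours, 5 concentrations, 96-well plates. Definition used: TGI = concentration required for complete inhibition of growth.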

A word on the TGI: it is the concentration at which net growth stops. The low end stands for greater sensitivity of the cells, the high end for lower sensitivity of the cells. For `COC(=O)c1ccc(OCc2ccc3nc(OC)c(OC)nc3c2)cc1`, the TGI in test [1], in test [2], in test [3], in test [4], in test [5] and in test [6] was greater than 100 µM each time. Further, the TGI in test [7], in [8] and in [9] was greater than 100 µM in each case.

As for `CC1=NN(c2ccccc2)C(=O)C1=C1SCCS1`, the TGI in test [1], in test [2], in [3], in test [4], in [5] and in [6] was greater than 100 µM throughout. Moreover, the TGI is greater than 57.9 µM in [7]; greater than 100 µM in test [10]; greater than 100 µM in test [8]; greater than 67.7 µM in [9]; greater than 100 µM in test [11]; greater than 100 µM in test [12].

As for `O=S1(=O)OCCOS(=O)(=O)C1I`, the TGI in test [2], in test [3], in test [4], in [5], in test [6] and in [7] was greater than 100 µM throughout. For the same compound, the TGI in test [10], in test [8], in [9] and in test [12] was greater than 100 µM each time.

For the compound `CC1(C)COC(C23C4C5C2C2C3C4C52I)=N1` (stereo not given), the TGI in [1], in [2], in test [4], in [5], in test [6] and in [7] was greater than 100 µM in each case. In addition, the TGI in test [10], in [8], in [9] and in test [11] was greater than 100 µM in each case.

For the compound `COc1c(Cl)c2c(c(OC)c1OC)-c1ccc(OC)c(=O)c(Cl)c1C(NC(C)=O)CC2` (stereo not given), the TGI in test [1] was greater than 100 µM; in [2] it was greater than 33.8 µM; in [3] it was greater than 100 µM; in [4], greater than 100 µM; in [5] it was 12.9 µM; in test [6], greater than 28.4 µM. Further, the TGI was greater than 100 µM in test [7]; greater than 100 µM in test [10]; greater than 100 µM in test [8]; 1.11 µM in test [9]; 6.32 µM in test [12].

As for `COc1ccc(N2C(=O)C3c4[nH]c5ccc(OC)cc5c4C4CCC(C(C)(C)C)CC4C3C2=O)cc1` (stereo not given), the TGI is greater than 100 µM in [1]; 66.1 µM in test [2]; 40.1 µM in test [3]; greater than 100 µM in test [4]; greater than 100 µM in test [5]; greater than 100 µM in [6]. The TGI is greater than 100 µM in [7]; 65.2 µM in test [10]; 45.3 µM in test [8]; greater than 100 µM in [9]; greater than 100 µM in test [11].

As to `C=CCCC(OCOCCOC)c1cc(C)c(O[Si](C)(C)C(C)(C)C)c(C)c1` (stereo not given), the TGI in test [1] is 96.4 µM; in test [2], 28.1 µM; in test [4], 20.7 µM; in test [6], 55.3 µM; in [10], greater than 100 µM; in test [8] it was greater than 100 µM. Further, the TGI in [9] worked out at 28 µM; in [11], 29 µM; in test [12], 30.4 µM.

As to `C/C(CC(=O)Nc1ccc(Cl)c(Cl)c1)=N/NC(=O)C[n+]1ccccc1`, the TGI in [1], in test [2], in [3], in [4], in test [5] and in test [6] was greater than 100 µM in each case. Also, the TGI in test [10] is greater than 100 µM; in [8] it was greater than 100 µM; in test [9], 66.1 µM; in [11], greater than 100 µM.

As for `COc1ccc2c(c1)c(=O)c1ccccc1n2/C=C/C(=O)O`, the TGI was greater than 100 µM in test [1]; greater than 100 µM in [2]; greater than 67 µM in [3]; greater than 100 µM in test [4]; greater than 100 µM in [5]; greater than 66.2 µM in test [7]. Besides, the TGI in test [10], in test [8], in [9] and in test [11] was greater than 100 µM each time.

Take `CN(C)c1ccc(-c2cc(=O)c3cc4c(cc3[nH]2)OCO4)cc1`: the TGI in test [2], in [3], in [4], in test [5], in test [6] and in [7] was greater than 100 µM throughout. Besides, the TGI in test [10], in test [9], in test [11] and in test [12] was greater than 100 µM in each case.

`C/C(=N\NS(=O)(=O)c1ccc(C)cc1)C(CN1CCOCC1)C(c1ccccc1)c1c(O)c2ccccc2oc1=O` (stereo not given): the TGI in test [1], in [2], in test [4], in test [5], in test [6] and in test [7] was greater than 100 µM throughout. The TGI in test [10], in test [8], in test [11] and in test [12] was greater than 100 µM each time.

As to `COC(=O)/C=C1/CCC2[C@@H](C(=O)CC3[C@]2(C)CCC[C@@]3(C)C(=O)OC)C1C` (stereo not given in full), the TGI in test [1] is 27.5 µM; in test [2], 36 µM; in test [3], 29.8 µM; in [4], 33.4 µM; in test [5], 30.3 µM; in test [6] it was 31.2 µM. Also, the TGI in [7] is 37.1 µM; in test [10], 20.8 µM; in [8], 40.5 µM; in test [9], 24.8 µM; in [11], 29.5 µM; in [12], 30.9 µM.

With `CCN1CCC(O)(c2ccc(C)cc2)C(C(=O)c2ccc(C)cc2)C1` (stereo not given), the TGI is 36.9 µM in test [1]; 26.6 µM in test [2]; 34.7 µM in test [3]; greater than 100 µM in test [4]; 33.1 µM in test [5]; greater than 61.2 µM in [6]. In addition, the TGI in test [7] is 33.4 µM; in [10], 31.3 µM; in test [8] it was greater than 76.8 µM; in [11], 17.7 µM.

In the case of `COc1cc(C2=NN(C)C(c3ccc([N+](=O)[O-])o3)C2)cc(OC)c1OC` (stereo not given), the TGI in test [1] was greater than 100 µM; in [2], 42.7 µM; in test [3], greater than 100 µM; in test [4], greater than 100 µM; in test [6], greater than 100 µM; in test [7], greater than 100 µM. Also, the TGI in test [10], in [8], in test [9], in test [11] and in [12] was greater than 100 µM in each case.

Take `O=C(O)/C=C/n1c2ccccc2c(=O)c2ccccc21`: the TGI in test [2], in test [3], in [4], in test [5], in test [6] and in test [7] was greater than 100 µM in each case. Further, the TGI in [8], in test [9], in [11] and in test [12] was greater than 100 µM in each case.

For the origin of these results see PubChem BioAssay (NCI).
